Measured values taken from patent publication US9387213B2, “Small molecules inhibiting oncoprotein Myc” (Health Research, Inc., priority 2012, dated 2016).

Test system: HO-null cells
Assay: Secondary filter for Myc specificity: cell growth inhibition, methylene blue staining
Format: cell-based
Conditions: Rattus norvegicus, 72 h, read-out: ID50 HO-null
Protocol: (§1) FIG. 4 illustrates the myc specificity of tested compounds. Rat1a cells expressing c-myc, L-myc or N-myc or lacking any Myc (null) were treated for 72 h with a range of hit compound concentrations. The cells were then fixed and stained with methylene blue and the percentage of cells in the presence of compound compared to DMSO only control was calculated.
(§2) Validated hits were divided into classes when two or more compounds shared significant structural similarity. The ID50 for N-myc transactivation (the inhibitory dose resulting in 50% decrease in luciferase activity) for each hit was calculated from the dose-response N-myc responsive reporter assay. Compounds within each class were ranked by their ID50 for N-myc transactivation and the best compounds within each class were chosen for further studies. In addition, the best of the structurally unique compounds were also analyzed. A total of 46 hits were passed through a secondary filter designed to determine the specificity of the hits for Myc proteins. For this filter, we used a panel of cell lines derived from Rat1a cells (kindly provided by Michael Cole, Dartmouth University): HO-null-c-Myc deficient cells due to homologous recombination that express neither N-myc nor L-myc HO-c-Myc, HO-L-myc and HO-N-myc derived by retroviral transduction of the corresponding Myc genes into HO-null cells. Since each cell line expresses only a single Myc or no Myc family members, we could identify compounds that act through Myc family members as well as which Myc family members. […] The 18 Myc-specific compounds identified during the screening and filtering process are presented in Table 1 and represent distinct classes of molecules, including pyrazoles (e.g., N147A7, N47E10, N147G5), tetrazoles (e.g., N77A7) and 3-bromophenol (e.g., N4G6).

| SMILES | IC50 [µM] |
| --- | --- |
| c1ccc(-c2nnc(-c3ccccn3)nc2-c2ccccc2)cc1 [Compound N49C4] | 159 |
| CC(=O)NC(c1ccc2c(c1)OCO2)c1ccc2cccnc2c1O (stereo not drawn) [Compound N103A8] | 7.57 |
| O=[N+]([O-])c1cccc(Nc2ncnc3ccc(Br)cc23)c1 [Compound N117E2] | > 50 |
| CC(C)Nc1ncnc2ccc(Br)cc12 [Compound N117G10] | 28.2 |
| O=C(NC(NC(=S)Nc1ccc(I)cc1)C(Cl)(Cl)Cl)c1cccc([N+](=O)[O-])c1 (stereo not drawn) [Compound N121F3] | 23.5 |
| CCOc1cccc(/C=N/NC(=O)CSc2nc3ccccc3[nH]2)c1O [Compound N144G3] | 83.2 |
| O=C(N/N=C/c1c(O)ccc2ccccc12)c1cc(C23CC4CC(CC(C4)C2)C3)n[nH]1 [Compound N147A7] | 5.12 |
| C=CCc1cccc(/C=N/NC(=O)c2cc(C(C)(C)C)n[nH]2)c1O [Compound N147G5] | > 25 |
| O=C(N/N=C\c1cc(Cc2ccccc2Cl)ccc1O)c1cncc(Br)c1 [Compound N171H10] | > 25 |
| CN1C(=O)/C(=C\c2cn(Cc3ccccc3)c3ccccc23)C(=O)NC1=S [Compound N423F7] | 1980 |
| CCN(CC)c1ccc(/C=N/NC(=O)c2cc(Br)ccc2O)c(O)c1 [Compound N6008] | > 25 |

Test system: HO-N-myc cells
Assay: as above
Format: cell-based, rat
Conditions: ID50 in HO-null cells divided by ID50 in HO—N-myc cells
Protocol: as §1, §2

| SMILES | Myc Index N |
| --- | --- |
| c1ccc(-c2nnc(-c3ccccn3)nc2-c2ccccc2)cc1 [Compound N49C4] | 8.1 |
| CC(=O)NC(c1ccc2c(c1)OCO2)c1ccc2cccnc2c1O (stereo not drawn) [Compound N103A8] | 4.5 |
| O=[N+]([O-])c1cccc(Nc2ncnc3ccc(Br)cc23)c1 [Compound N117E2] | >6 |
| CC(C)Nc1ncnc2ccc(Br)cc12 [Compound N117G10] | 6 |
| O=C(NC(NC(=S)Nc1ccc(I)cc1)C(Cl)(Cl)Cl)c1cccc([N+](=O)[O-])c1 (stereo not drawn) [Compound N121F3] | 2.4 |
| CCOc1cccc(/C=N/NC(=O)CSc2nc3ccccc3[nH]2)c1O [Compound N144G3] | 4.7 |
| O=C(N/N=C/c1c(O)ccc2ccccc12)c1cc(C23CC4CC(CC(C4)C2)C3)n[nH]1 [Compound N147A7] | 2.7 |
| C=CCc1cccc(/C=N/NC(=O)c2cc(C(C)(C)C)n[nH]2)c1O [Compound N147G5] | >5 |
| O=C(N/N=C\c1cc(Cc2ccccc2Cl)ccc1O)c1cncc(Br)c1 [Compound N171H10] | >6 |
| CN1C(=O)/C(=C\c2cn(Cc3ccccc3)c3ccccc23)C(=O)NC1=S [Compound N423F7] | 17 |
| CCN(CC)c1ccc(/C=N/NC(=O)c2cc(Br)ccc2O)c(O)c1 [Compound N6008] | >11 |

Same assay, conditions: Rattus norvegicus; cell growth inhibition, 72 h, methylene blue; read-out: ID50 HO—N-myc

| SMILES | IC50 [µM] |
| --- | --- |
| c1ccc(-c2nnc(-c3ccccn3)nc2-c2ccccc2)cc1 [Compound N49C4] | ~728 |
| CC(=O)NC(c1ccc2c(c1)OCO2)c1ccc2cccnc2c1O (stereo not drawn) [Compound N103A8] | 1.69 |
| O=[N+]([O-])c1cccc(Nc2ncnc3ccc(Br)cc23)c1 [Compound N117E2] | 8.8 |
| CC(C)Nc1ncnc2ccc(Br)cc12 [Compound N117G10] | 4.58 |
| O=C(NC(NC(=S)Nc1ccc(I)cc1)C(Cl)(Cl)Cl)c1cccc([N+](=O)[O-])c1 (stereo not drawn) [Compound N121F3] | 9.7 |
| CCOc1cccc(/C=N/NC(=O)CSc2nc3ccccc3[nH]2)c1O [Compound N144G3] | 17.8 |
| O=C(N/N=C/c1c(O)ccc2ccccc12)c1cc(C23CC4CC(CC(C4)C2)C3)n[nH]1 [Compound N147A7] | 1.9 |
| C=CCc1cccc(/C=N/NC(=O)c2cc(C(C)(C)C)n[nH]2)c1O [Compound N147G5] | 5 |
| O=C(N/N=C\c1cc(Cc2ccccc2Cl)ccc1O)c1cncc(Br)c1 [Compound N171H10] | 4 |
| CN1C(=O)/C(=C\c2cn(Cc3ccccc3)c3ccccc23)C(=O)NC1=S [Compound N423F7] | 120 |
| CCN(CC)c1ccc(/C=N/NC(=O)c2cc(Br)ccc2O)c(O)c1 [Compound N6008] | 2.34 |

Test system: HO-c-Myc cells
Assay: as above
Format: cell-based, rat
Conditions: ID50 in HO-null cells divided by ID50 in HO-c-myc cells
Protocol: as §1, §2

| SMILES | Myc Index C |
| --- | --- |
| CC(=O)NC(c1ccc2c(c1)OCO2)c1ccc2cccnc2c1O (stereo not drawn) [Compound N103A8] | 4.7 |
| O=[N+]([O-])c1cccc(Nc2ncnc3ccc(Br)cc23)c1 [Compound N117E2] | >7 |
| CC(C)Nc1ncnc2ccc(Br)cc12 [Compound N117G10] | 4.5 |
| O=C(NC(NC(=S)Nc1ccc(I)cc1)C(Cl)(Cl)Cl)c1cccc([N+](=O)[O-])c1 (stereo not drawn) [Compound N121F3] | 2.1 |
| CCOc1cccc(/C=N/NC(=O)CSc2nc3ccccc3[nH]2)c1O [Compound N144G3] | 3.22 |
| O=C(N/N=C/c1c(O)ccc2ccccc12)c1cc(C23CC4CC(CC(C4)C2)C3)n[nH]1 [Compound N147A7] | 1.3 |
| C=CCc1cccc(/C=N/NC(=O)c2cc(C(C)(C)C)n[nH]2)c1O [Compound N147G5] | >6 |
| O=C(N/N=C\c1cc(Cc2ccccc2Cl)ccc1O)c1cncc(Br)c1 [Compound N171H10] | >10 |
| CN1C(=O)/C(=C\c2cn(Cc3ccccc3)c3ccccc23)C(=O)NC1=S [Compound N423F7] | 22 |
| CCN(CC)c1ccc(/C=N/NC(=O)c2cc(Br)ccc2O)c(O)c1 [Compound N6008] | >11 |

Same assay, conditions: Rattus norvegicus; cell growth inhibition, 72 h, methylene blue; read-out: ID50 HO-c-myc

| SMILES | IC50 [µM] |
| --- | --- |
| c1ccc(-c2nnc(-c3ccccn3)nc2-c2ccccc2)cc1 [Compound N49C4] | 19.6 |
| CC(=O)NC(c1ccc2c(c1)OCO2)c1ccc2cccnc2c1O (stereo not drawn) [Compound N103A8] | 1.62 |
| O=[N+]([O-])c1cccc(Nc2ncnc3ccc(Br)cc23)c1 [Compound N117E2] | 7.49 |
| CC(C)Nc1ncnc2ccc(Br)cc12 [Compound N117G10] | 6.27 |
| O=C(NC(NC(=S)Nc1ccc(I)cc1)C(Cl)(Cl)Cl)c1cccc([N+](=O)[O-])c1 (stereo not drawn) [Compound N121F3] | 11.3 |
| CCOc1cccc(/C=N/NC(=O)CSc2nc3ccccc3[nH]2)c1O [Compound N144G3] | 25.8 |
| O=C(N/N=C/c1c(O)ccc2ccccc12)c1cc(C23CC4CC(CC(C4)C2)C3)n[nH]1 [Compound N147A7] | 3.94 |
| C=CCc1cccc(/C=N/NC(=O)c2cc(C(C)(C)C)n[nH]2)c1O [Compound N147G5] | 4.2 |
| O=C(N/N=C\c1cc(Cc2ccccc2Cl)ccc1O)c1cncc(Br)c1 [Compound N171H10] | 2.6 |
| CN1C(=O)/C(=C\c2cn(Cc3ccccc3)c3ccccc23)C(=O)NC1=S [Compound N423F7] | 89.1 |
| CCN(CC)c1ccc(/C=N/NC(=O)c2cc(Br)ccc2O)c(O)c1 [Compound N6008] | 2.32 |
